Among the data in PubChem BioAssay (NCI) are GI50 and TGI values, retold here.

The structures appear in SMILES notation. “And” between values parts separate entries of the source, which are not always exact repeats. Identical values can stand only once.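 96-well plates; 48 h exposure; 5 concentrations. Endpoints by linear interpolation between flanking doses. Not reached: highest tested concentration assigned. Abbreviation: GI50, concentration required for 50% inhibition of growth. Definition used: TGI = concentration required for complete inhibition of growth.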

What all share (experiment): NCI-60 cell line screen, 48 h
In assay [1] the test system is 786-0 renal.
For assay [2], the system named is MALME-3M melanoma.
The test system of assay [3] is IGROV1 ovarian.
In assay [4] the test system is SR leukemia.
Assay [5] deals with SK-MEL-5 melanoma.
For assay [6], the system named is SK-MEL-28 melanoma.
Assay [7] deals with HCT-116 colon.
Assay [8] has as its system OVCAR-4 ovarian.
In assay [9] the test system is A549 NSCLC.
Assay [10] deals with SF-268 CNS.

Consider `C=C1C(=O)[C@@]23CC1C(O)[C@@H](OC(C)=O)[C@@H]2C1(C)C(OC(C)=O)C[C@@H](OC(C)=O)C(C)(C)[C@@H]1C[C@H]3OC(C)=O` (some centres undefined), for which the GI50 in assay [1] is 1.81 µg/mL; in [2] it was 1.57 µM and 1.72 µg/mL; in assay [3] it was > 10 µM and 13.1 µg/mL; in assay [4] it was 1.7 µM and 0.255 µg/mL; in assay [5], 2.69 µM and 5.05 µg/mL; in assay [6] it was 6.69 µM and 1.67 µg/mL. Also, the GI50 in [7] was 1.45 µM and 1.46 µg/mL; in assay [8] it was > 10 µM and 8.36 µg/mL; in assay [9], > 10 µM and 13.9 µg/mL; in [10], > 10 µM and 6.82 µg/mL. Besides, the TGI in [1] was > 10 µM and 3.97 µg/mL; in [2] it was 3.3 µM and 3.14 µg/mL; in assay [3] it was > 10 µM and 27.7 µg/mL; in [4], 4.6 µM and 1.63 µg/mL; in assay [5] it was 9.01 µM and 16.5 µg/mL; in assay [6], > 10 µM and 3.46 µg/mL. The TGI in assay [7] was 2.98 µM and 2.89 µg/mL; in [8], > 10 µM and 22.1 µg/mL; in [9], > 10 µM and 30 µg/mL; in assay [10] it was > 10 µM and 28.3 µg/mL.

For the compound `O=C1c2ccccc2C2(O)NC(=S)N(c3ccccc3)C12O` (centres undefined), the TGI in assay [1], in [2], in [3], in assay [4], in assay [6] and in [7] was over 100 µM throughout. The TGI in assay [8], in [9] and in assay [10] was over 100 µM throughout.

Regarding `CCCN1CCN(c2ccc3nc(-c4ccc5nc(-c6cc(OC)ccc6OC)[nH]c5c4)[nH]c3c2)CC1`, the GI50 in assay [1] was 1.93 µM; in assay [2], 20.3 µM; in assay [3], 13.5 µM; in assay [4], 2.55 µM; in assay [5], 15.1 µM; in assay [6] it was 18.9 µM. Also, the GI50 in [7] is 1.74 µM; in assay [8], 1.98 µM; in [9], 1.85 µM; in [10], 18.6 µM. For the same compound, the TGI in [1] came out at 3.41 µM; in assay [2], 40.9 µM; in assay [3], 30.3 µM; in [4], 5.54 µM; in [5] it was 34.1 µM; in assay [6] it was 35.9 µM. For the same compound, the TGI in assay [7] turned out to be 3.16 µM; in [8], 3.85 µM; in assay [9], 3.64 µM; in assay [10] it was 43 µM.

For the compound `CN1CCCCCC(=N\O)/C(=N/O)CCCCC1`, the TGI in [1], in assay [2], in assay [3], in assay [4], in assay [5] and in assay [6] was over 100 µM in each case. In addition, the TGI in [7], in assay [9] and in assay [10] was over 100 µM in each case.

Turning to `C=CCN(CC=C)C(=O)c1cc(C)nc2c1c(=O)n(-c1ccccc1)c(=O)n2CC(O)CN1CCN(c2ncccn2)CC1` (centres undefined), the GI50 is over 100 µM in [1]; over 100 µM in [2]; over 100 µM in [3]; over 100 µM in [4]; over 100 µM in [5]; 60.9 µM in assay [6]. The GI50 was over 100 µM in assay [7], 80.3 µM in assay [8] and 17.2 µM in assay [10]. In addition, the TGI in assay [1], in assay [2], in assay [3], in [4], in assay [5] and in [6] was over 100 µM each time. In addition, the TGI in assay [7], in assay [8] and in assay [10] was over 100 µM in each case.

As to `CC/C(=C(/CC)c1ccc(O)cc1)c1ccc([O-])cc1.CC/C(=C(/CC)c1ccc(O)cc1)c1ccc([O-])cc1.O=C([CH-]C(=O)c1ccccc1)c1ccccc1.O=C([CH-]C(=O)c1ccccc1)c1ccccc1.[Ti+4]`, the GI50 in assay [1] is 13.7 µM; in assay [2], 7.53 µM; in assay [3], 16.1 µM; in [4] it was 9.89 µM; in [6] it was 15.8 µM; in [7] it was 5.22 µM. Also, the GI50 in assay [8] was 24.8 µM; in [9], 7.99 µM; in [10] it was 18 µM. In addition, the TGI in assay [1] was 33.1 µM; in [2] it was 20.3 µM; in [3] it was 37.7 µM; in [4] it was over 100 µM; in assay [6] it was over 100 µM; in assay [7], 17.3 µM. Besides, the values for the TGI in assay [8], in assay [9] and in assay [10] were over 100 µM, 32.3 µM and 73.2 µM, respectively.

Turning to `COc1cc2c(Oc3ccc4[nH]c(C)cc4c3F)ccnc2cc1OCC1(N)CC1`, the GI50 in [1] is 1.02 µM; in [2], 1.21 µM; in assay [3] it was 1.16 µM; in assay [4] it was 0.395 µM; in [5] it was 0.967 µM; in assay [6], 1.41 µM. Moreover, the GI50 was 0.745 µM in assay [7], 4.22 µM in assay [8] and 1.39 µM in assay [10]. For the same compound, the TGI in [1] is 3.46 µM; in [2] it was 3.03 µM; in assay [3] it was 13 µM; in assay [4], 4.31 µM; in assay [5] it was 2.24 µM; in [6] it was 2.95 µM. The TGI is 10.6 µM in assay [7], over 100 µM in assay [8] and 12.9 µM in assay [10].

Consider `CC(=O)Nc1c(C)ccc2c1C(=O)c1ccccc1C2=O`, for which the TGI in [1], in assay [2], in assay [3], in assay [4], in assay [5] and in assay [7] was over 100 µM each time. Further, the TGI in assay [8], in assay [9] and in assay [10] was over 100 µM in each case.

On to `Cc1nc2cc(N)c(F)cc2[nH]1`, for which the TGI in [1], in assay [2], in assay [3], in [4], in assay [5] and in [6] was over 100 µM in each case. The TGI in [8], in assay [9] and in assay [10] was over 100 µM in each case.

With `O=C1c2cc([N+](=O)[O-])ccc2-c2cccc(F)c21`, the TGI in [1], in [3], in assay [4], in [5], in [6] and in assay [7] was over 100 µM throughout. For the same compound, the TGI in [8], in [9] and in assay [10] was over 100 µM throughout.

As to `O=C1NC2CCC(C2)C1c1ccccc1` (centres undefined), the TGI in assay [1], in [2], in assay [3], in assay [4], in assay [5] and in assay [6] was over 100 µM throughout. For the same compound, the TGI in [8], in assay [9] and in assay [10] was over 100 µM throughout.

For `CCN(CC)CCNC(=O)c1nn(C)c(=S)[nH]c1=S`, the TGI in [1], in assay [2], in [3], in assay [4], in assay [5] and in assay [6] was over 100 µM throughout. Also, the TGI in assay [7], in assay [8] and in assay [9] was over 100 µM each time.

On to `COC(=O)C(=O)C(C#N)c1ccc(CC#N)cc1` (centres undefined), for which the TGI in assay [1], in assay [2], in assay [3], in [4], in [6] and in assay [7] was over 100 µM throughout. Also, the TGI in assay [9] and in assay [10] was over 100 µM in each case.

Regarding `CC(=O)/C(=C\C1=CCCO1)C(=O)Nc1ccccc1C`, the TGI in assay [1], in assay [2], in [3], in assay [4], in [5] and in assay [7] was over 100 µM throughout. Moreover, the TGI in assay [8], in assay [9] and in assay [10] was over 100 µM in each case.

On to `CC[Si](CC)(CC)OC[C@]1([C@@H]2COC(C)(C)O2)CC=CC(=O)O1`, for which the GI50 was 38.1 µM in assay [1]; 18.1 µM in assay [2]; 23 µM in assay [4]; 19 µM in assay [5]; 19.8 µM in assay [6]; 39.5 µM in assay [7]. The GI50 is 85.8 µM in assay [8], 30.4 µM in assay [9] and 41.5 µM in assay [10]. For the same compound, the TGI is over 100 µM in assay [1]; 44.4 µM in [2]; 95.1 µM in [4]; 40 µM in [5]; 85.3 µM in assay [6]; over 100 µM in assay [7]. The TGI in [8], in [9] and in [10] was over 100 µM throughout.

For `COC(=O)C12CC3CC(C1)CC(C(=O)OC)(C3)C2`, the TGI in assay [1], in assay [3], in assay [4], in assay [5], in assay [6] and in [7] was over 100 µM throughout. Besides, the TGI in [8], in assay [9] and in [10] was over 100 µM throughout.

Consider `Cc1cc(N2CCN(c3ccnc4cc(Cl)ccc34)CC2)nc(NC2CCCCC2)n1`, for which the GI50 is 1.57 µM in [1]; 1.89 µM in assay [2]; 2.35 µM in assay [3]; 1.93 µM in assay [4]; 1.73 µM in assay [5]; 1.32 µM in assay [7]. The results for the GI50 in assay [8], in assay [9] and in assay [10] were 2.08 µM, 2.02 µM and 2.34 µM, respectively. Moreover, the TGI worked out at 3.05 µM in [1]; 3.83 µM in [2]; 5.35 µM in assay [3]; 4.73 µM in assay [4]; 3.3 µM in assay [5]; 2.91 µM in assay [7]. Moreover, the TGI in assay [8] worked out at 8.77 µM; in [9] it was 4.48 µM; in [10], 5.41 µM.

Turning to `c1cc(OCCN2CCCCC2)ccc1CNc1ccc2nc(CCC3CCCCC3)[nH]c2c1`, the GI50 in assay [1] was 1.65 µM; in assay [2], 1.62 µM; in assay [3], 2.32 µM; in assay [4] it was 0.617 µM; in [5], 1.63 µM; in assay [7], 1.64 µM. The results for the GI50 in assay [8], in assay [9] and in [10] were 2.8 µM, 2.54 µM and 2.08 µM, respectively. For the same compound, the TGI in assay [1] worked out at 3.55 µM; in assay [2], 3.14 µM; in [3] it was 6.59 µM; in assay [4], 3.01 µM; in assay [5], 3.01 µM; in assay [7], 3.57 µM. In addition, the TGI was determined as 12.3 µM in assay [8], 7.06 µM in assay [9] and 5.43 µM in assay [10].

On to `O=c1[nH]ccc2nc(N3CCC(O)CC3)nc(Nc3cccc(C(F)(F)F)c3)c12`, for which the GI50 in [1] is 2.06 µM; in assay [2] it was 2.61 µM; in assay [4], 0.707 µM; in assay [5], 1.23 µM; in [6], 4.63 µM; in assay [7] it was 0.88 µM. Also, the results for the GI50 in assay [8], in [9] and in assay [10] were 1.73 µM, 3.83 µM and 3.06 µM, respectively. For the same compound, the TGI is over 100 µM in assay [1]; 7.87 µM in assay [2]; 26.9 µM in assay [4]; 2.5 µM in [5]; 17.4 µM in assay [6]; 12.3 µM in assay [7]. Further, the TGI in [8] was 36.4 µM; in assay [9], over 100 µM; in assay [10], 35.3 µM.

`CN(C)CC/C(=N\Nc1ccccc1)c1ccccc1`: the TGI in assay [1] is 51.2 µM; in [2], 25.6 µM; in [3], over 100 µM; in [4], over 100 µM; in [5], 35.6 µM; in assay [7], 34.4 µM. Also, the figures for the TGI in [8], in assay [9] and in [10] were 32.4 µM, over 100 µM and over 100 µM, respectively.
